Laboratory results as given in ChEMBL document CHEMBL4507276 (2021).

Legend:
[1] = target: Phosphatidylinositol 4-phosphate 5-kinase type-1 gamma (Homo sapiens) (UniProt O60331); conditions: Compound concentration 1000.0 nM
[2] = target: Homeodomain-interacting protein kinase 2 (Homo sapiens) (UniProt Q9H2X6); conditions: Compound concentration 1000.0 nM
[3] = target: Insulin receptor-related protein (Homo sapiens) (UniProt P14616); conditions: Compound concentration 1000.0 nM
[4] = target: Cyclin-dependent kinase 11A (Homo sapiens) (UniProt Q9UQ88); conditions: Compound concentration 1000.0 nM
[5] = target: NUAK family SNF1-like kinase 2 (Homo sapiens) (UniProt Q9H093); conditions: Compound concentration 1000.0 nM
[6] = target: Mitogen-activated protein kinase 9 (Homo sapiens) (UniProt P45984); conditions: Compound concentration 1000.0 nM
Sequence of Mitogen-activated protein kinase 9 (Homo sapiens) (P45984 whole entry, looked up): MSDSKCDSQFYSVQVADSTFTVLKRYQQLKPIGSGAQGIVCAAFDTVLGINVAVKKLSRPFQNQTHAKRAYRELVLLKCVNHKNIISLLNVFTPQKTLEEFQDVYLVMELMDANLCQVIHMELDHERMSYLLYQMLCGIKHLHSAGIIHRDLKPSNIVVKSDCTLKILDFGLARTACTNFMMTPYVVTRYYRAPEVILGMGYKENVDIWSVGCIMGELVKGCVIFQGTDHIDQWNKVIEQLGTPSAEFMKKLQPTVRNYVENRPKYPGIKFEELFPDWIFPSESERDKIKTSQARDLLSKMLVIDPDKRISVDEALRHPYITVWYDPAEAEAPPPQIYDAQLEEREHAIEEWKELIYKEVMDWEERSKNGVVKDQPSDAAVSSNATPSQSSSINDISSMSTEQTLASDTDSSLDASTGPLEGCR

[7] = target: GABA-A receptor; anion channel (Rattus norvegicus) (UniProt O09028+P15431+P18506+P18508+P19969+P20236+P23574+P23576+P28471+P28473+P30191+P62813+P63079+P63138+Q91ZM7+Q9ES14); conditions: Compound concentration 10.0 uM
[8] = target: T1, Mitogen-activated protein kinase kinase kinase 5 (Homo sapiens) (UniProt Q99683); conditions: Compound concentration 1000.0 nM
T1 sequence (whole entry): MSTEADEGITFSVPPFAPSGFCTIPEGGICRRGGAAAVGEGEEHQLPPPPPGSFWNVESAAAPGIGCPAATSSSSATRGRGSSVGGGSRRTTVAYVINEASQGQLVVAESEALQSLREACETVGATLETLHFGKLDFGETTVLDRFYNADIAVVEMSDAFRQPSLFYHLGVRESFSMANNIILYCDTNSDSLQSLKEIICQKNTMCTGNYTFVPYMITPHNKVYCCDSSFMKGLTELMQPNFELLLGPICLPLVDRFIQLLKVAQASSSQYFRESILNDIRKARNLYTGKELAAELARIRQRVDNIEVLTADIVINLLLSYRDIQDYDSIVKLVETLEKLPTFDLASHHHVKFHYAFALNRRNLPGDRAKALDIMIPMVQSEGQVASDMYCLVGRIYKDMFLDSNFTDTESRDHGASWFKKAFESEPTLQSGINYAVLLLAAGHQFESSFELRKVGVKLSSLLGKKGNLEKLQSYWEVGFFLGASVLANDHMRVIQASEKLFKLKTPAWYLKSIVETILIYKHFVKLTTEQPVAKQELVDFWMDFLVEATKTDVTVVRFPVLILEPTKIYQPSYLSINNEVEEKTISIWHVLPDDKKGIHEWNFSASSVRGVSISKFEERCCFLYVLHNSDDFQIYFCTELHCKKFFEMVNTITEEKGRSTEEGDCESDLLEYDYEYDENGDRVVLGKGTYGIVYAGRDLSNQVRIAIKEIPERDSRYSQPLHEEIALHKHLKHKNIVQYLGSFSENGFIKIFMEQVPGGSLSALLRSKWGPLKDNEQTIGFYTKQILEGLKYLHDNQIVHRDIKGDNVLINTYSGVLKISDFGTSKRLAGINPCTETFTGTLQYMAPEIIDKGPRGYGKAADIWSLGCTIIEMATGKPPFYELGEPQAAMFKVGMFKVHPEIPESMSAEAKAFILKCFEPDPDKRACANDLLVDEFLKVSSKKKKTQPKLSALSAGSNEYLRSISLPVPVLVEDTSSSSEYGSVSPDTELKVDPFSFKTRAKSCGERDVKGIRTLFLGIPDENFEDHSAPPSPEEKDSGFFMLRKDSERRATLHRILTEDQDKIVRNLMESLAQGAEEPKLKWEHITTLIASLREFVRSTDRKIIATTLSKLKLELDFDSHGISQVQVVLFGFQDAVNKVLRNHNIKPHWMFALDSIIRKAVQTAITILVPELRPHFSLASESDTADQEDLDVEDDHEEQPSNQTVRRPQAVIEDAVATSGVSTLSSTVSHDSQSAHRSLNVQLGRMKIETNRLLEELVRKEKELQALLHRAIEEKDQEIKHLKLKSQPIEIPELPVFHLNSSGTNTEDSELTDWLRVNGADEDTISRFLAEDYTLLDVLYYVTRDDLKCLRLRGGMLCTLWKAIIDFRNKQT

[9] = test system: Tyrosine-protein kinase ABL1 (Homo sapiens), P00519 [E255K]; conditions: Compound concentration 1000.0 nM
Sequence of Tyrosine-protein kinase ABL1 (Homo sapiens), P00519 [E255K] (P00519 whole entry E255K): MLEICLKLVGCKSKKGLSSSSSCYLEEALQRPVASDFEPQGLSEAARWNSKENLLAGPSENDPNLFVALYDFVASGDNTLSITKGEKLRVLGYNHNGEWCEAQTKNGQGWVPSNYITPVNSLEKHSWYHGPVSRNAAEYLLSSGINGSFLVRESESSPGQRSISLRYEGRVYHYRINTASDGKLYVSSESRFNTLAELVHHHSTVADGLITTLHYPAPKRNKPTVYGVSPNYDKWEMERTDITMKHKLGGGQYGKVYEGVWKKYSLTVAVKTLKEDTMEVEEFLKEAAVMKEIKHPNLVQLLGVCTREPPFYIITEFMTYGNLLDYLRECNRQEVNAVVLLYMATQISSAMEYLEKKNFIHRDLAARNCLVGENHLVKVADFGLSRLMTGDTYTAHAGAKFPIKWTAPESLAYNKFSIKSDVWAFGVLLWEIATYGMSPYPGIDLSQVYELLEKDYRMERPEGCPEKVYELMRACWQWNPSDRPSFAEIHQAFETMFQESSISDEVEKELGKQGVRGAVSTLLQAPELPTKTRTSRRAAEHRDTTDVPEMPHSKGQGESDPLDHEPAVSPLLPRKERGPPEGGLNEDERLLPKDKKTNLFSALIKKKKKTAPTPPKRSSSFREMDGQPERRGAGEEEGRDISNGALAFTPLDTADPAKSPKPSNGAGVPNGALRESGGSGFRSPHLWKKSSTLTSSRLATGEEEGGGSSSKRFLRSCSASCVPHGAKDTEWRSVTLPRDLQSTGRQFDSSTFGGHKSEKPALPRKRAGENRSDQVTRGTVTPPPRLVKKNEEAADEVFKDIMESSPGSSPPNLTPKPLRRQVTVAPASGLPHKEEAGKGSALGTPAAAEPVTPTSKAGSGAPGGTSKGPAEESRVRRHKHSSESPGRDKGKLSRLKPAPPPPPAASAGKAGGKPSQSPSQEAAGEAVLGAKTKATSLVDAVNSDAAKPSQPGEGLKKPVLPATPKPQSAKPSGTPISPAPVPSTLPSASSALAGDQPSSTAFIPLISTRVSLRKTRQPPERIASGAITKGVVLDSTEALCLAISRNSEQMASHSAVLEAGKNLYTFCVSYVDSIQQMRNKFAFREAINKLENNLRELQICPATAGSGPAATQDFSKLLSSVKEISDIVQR

[10] = target: Mitogen-activated protein kinase 14 (Homo sapiens) (UniProt Q16539); conditions: Compound concentration 1000.0 nM
Sequence of Mitogen-activated protein kinase 14 (Homo sapiens) (Q16539 whole entry): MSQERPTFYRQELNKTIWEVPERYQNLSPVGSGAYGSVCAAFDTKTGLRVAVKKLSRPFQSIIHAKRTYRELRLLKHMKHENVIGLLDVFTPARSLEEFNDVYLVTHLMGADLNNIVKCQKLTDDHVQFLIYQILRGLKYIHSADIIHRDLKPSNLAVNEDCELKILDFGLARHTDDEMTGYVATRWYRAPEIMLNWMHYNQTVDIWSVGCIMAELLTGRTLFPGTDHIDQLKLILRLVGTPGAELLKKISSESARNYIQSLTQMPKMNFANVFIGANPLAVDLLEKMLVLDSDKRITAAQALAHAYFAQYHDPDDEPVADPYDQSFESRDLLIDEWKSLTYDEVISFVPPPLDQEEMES

[11] = target: Interleukin-1 receptor-associated kinase 3 (Homo sapiens) (UniProt Q9Y616); conditions: Compound concentration 1000.0 nM
Sequence of Interleukin-1 receptor-associated kinase 3 (Homo sapiens) (Q9Y616 whole entry): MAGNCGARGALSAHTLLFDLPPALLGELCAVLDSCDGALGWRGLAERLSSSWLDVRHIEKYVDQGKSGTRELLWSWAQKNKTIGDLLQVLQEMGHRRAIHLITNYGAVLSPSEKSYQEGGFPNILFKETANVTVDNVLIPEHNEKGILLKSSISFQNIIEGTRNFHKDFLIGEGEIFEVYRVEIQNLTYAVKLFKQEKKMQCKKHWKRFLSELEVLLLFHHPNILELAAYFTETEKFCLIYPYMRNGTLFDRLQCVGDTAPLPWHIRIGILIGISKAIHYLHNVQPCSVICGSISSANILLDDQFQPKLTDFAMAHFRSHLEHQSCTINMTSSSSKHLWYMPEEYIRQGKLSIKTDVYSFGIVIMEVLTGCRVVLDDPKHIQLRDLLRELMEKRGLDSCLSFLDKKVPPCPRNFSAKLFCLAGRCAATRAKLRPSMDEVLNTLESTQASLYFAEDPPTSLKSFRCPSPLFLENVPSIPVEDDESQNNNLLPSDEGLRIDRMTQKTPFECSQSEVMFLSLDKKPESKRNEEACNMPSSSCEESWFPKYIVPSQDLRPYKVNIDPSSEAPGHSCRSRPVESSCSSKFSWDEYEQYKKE

[12] = target: T2, Tyrosine-protein kinase TXK (Homo sapiens) (UniProt P42681); conditions: Compound concentration 1000.0 nM
T2 sequence (whole entry): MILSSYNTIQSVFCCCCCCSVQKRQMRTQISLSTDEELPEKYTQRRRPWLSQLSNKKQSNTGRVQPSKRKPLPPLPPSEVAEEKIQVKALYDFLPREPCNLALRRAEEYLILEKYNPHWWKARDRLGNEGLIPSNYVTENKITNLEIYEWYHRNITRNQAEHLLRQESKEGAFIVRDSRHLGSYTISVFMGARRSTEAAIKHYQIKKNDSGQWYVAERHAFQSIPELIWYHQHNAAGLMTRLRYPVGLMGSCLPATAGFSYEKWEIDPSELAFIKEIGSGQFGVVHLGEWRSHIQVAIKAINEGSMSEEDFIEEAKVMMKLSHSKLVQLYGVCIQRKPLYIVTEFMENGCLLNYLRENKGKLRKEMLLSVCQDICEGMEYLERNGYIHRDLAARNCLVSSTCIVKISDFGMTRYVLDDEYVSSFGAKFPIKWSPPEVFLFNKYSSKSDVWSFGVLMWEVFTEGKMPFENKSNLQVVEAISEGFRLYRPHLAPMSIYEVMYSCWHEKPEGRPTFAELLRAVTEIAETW

[13] = target: Casein kinase I isoform delta (Homo sapiens) (UniProt P48730); conditions: Compound concentration 1000.0 nM
Sequence of Casein kinase I isoform delta (Homo sapiens) (P48730 whole entry, looked up, canonical isoform): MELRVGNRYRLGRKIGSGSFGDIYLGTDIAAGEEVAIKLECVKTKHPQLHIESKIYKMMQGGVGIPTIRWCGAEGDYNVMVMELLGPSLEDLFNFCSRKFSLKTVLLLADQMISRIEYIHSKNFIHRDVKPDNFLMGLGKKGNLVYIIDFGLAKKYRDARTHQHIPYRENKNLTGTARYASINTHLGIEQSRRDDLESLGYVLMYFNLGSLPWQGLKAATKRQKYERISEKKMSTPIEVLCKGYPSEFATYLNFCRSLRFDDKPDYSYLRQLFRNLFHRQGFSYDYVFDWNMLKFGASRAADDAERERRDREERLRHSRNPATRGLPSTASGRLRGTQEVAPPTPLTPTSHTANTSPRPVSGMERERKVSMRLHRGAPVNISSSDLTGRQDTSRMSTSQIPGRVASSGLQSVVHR

[14] = target: Myosin-IIIb (Homo sapiens) (UniProt Q8WXR4); conditions: Compound concentration 1000.0 nM
Sequence of Myosin-IIIb (Homo sapiens) (Q8WXR4 whole entry): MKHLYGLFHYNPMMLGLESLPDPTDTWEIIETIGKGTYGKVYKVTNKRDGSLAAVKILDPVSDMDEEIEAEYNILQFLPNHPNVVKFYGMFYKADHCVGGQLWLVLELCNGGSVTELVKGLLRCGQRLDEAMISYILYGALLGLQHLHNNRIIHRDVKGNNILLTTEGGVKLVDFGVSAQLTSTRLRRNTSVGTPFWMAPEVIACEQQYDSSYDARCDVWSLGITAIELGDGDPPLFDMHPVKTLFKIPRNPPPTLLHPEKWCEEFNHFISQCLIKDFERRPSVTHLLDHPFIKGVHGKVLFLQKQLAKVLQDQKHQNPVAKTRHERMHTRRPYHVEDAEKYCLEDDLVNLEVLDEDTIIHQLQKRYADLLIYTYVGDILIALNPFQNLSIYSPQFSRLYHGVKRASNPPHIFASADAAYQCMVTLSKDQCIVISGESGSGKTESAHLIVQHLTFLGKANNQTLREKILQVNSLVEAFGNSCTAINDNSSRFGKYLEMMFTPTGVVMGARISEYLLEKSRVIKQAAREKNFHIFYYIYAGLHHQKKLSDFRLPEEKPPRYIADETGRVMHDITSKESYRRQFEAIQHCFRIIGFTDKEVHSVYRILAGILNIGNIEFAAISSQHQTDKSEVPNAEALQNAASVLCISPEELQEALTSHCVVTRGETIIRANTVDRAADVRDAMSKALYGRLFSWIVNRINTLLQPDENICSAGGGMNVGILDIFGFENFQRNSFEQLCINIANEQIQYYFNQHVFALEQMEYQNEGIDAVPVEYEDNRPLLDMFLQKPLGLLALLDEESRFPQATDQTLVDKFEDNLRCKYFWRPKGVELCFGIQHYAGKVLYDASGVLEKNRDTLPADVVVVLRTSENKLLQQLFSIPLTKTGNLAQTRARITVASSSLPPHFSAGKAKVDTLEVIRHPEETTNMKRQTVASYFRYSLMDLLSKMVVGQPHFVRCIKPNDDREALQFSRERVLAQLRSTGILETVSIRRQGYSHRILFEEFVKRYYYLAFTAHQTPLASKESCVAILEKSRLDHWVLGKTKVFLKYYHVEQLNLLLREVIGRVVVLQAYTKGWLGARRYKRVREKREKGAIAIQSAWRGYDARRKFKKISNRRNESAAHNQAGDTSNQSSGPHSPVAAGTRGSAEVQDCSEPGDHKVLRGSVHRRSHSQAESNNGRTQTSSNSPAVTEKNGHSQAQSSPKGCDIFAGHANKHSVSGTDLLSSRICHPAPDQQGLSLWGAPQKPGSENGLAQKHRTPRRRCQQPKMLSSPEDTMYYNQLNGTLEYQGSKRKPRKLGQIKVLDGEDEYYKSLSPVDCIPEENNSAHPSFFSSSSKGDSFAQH

[15] = test system: Epidermal growth factor receptor (Homo sapiens), P00533 [UNDEFINED MUTATION]; conditions: Compound concentration 1000.0 nM
[16] = target: Tyrosine-protein kinase Fes/Fps (Homo sapiens) (UniProt P07332); conditions: Compound concentration 1000.0 nM
[17] = target: Ephrin type-B receptor 6 (Homo sapiens) (UniProt O15197); conditions: Compound concentration 1000.0 nM
[18] = target: Phosphatidylinositol 5-phosphate 4-kinase type-2 gamma (Homo sapiens) (UniProt Q8TBX8); conditions: Compound concentration 1000.0 nM
Sequence of Phosphatidylinositol 5-phosphate 4-kinase type-2 gamma (Homo sapiens) (Q8TBX8 whole entry): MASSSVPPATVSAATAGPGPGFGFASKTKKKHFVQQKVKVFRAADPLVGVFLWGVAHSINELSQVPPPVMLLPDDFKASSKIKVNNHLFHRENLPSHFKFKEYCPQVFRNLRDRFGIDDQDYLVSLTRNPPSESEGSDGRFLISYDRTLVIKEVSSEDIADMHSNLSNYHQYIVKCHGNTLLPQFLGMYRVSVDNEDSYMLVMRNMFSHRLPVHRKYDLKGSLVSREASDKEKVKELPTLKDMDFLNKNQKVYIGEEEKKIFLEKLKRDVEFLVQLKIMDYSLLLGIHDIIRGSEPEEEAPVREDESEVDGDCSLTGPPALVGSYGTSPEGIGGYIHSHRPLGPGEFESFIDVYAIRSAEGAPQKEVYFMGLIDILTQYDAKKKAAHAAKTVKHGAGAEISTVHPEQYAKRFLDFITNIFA

CN(C)C(=O)Cn1cc(-c2nc(C3(c4ccc(-c5cnc(N)nc5)cc4)CC3)no2)cn1 [BI 0153]
inactive: residual activity [1] 96% | residual activity [2] 94% | residual activity [3] 100% | residual activity [4] 89% | residual activity [5] 87% | residual activity [6] 81% | inhibition [7] 19.4% | residual activity [8] 91% | residual activity [9] 100% | residual activity [10] 100% | residual activity [11] 96% | residual activity [12] 98% | residual activity [13] 100% | residual activity [14] 100% | residual activity [15] 67% | residual activity [16] 100% | residual activity [17] 93% | residual activity [18] 100%

CN(C)C(=O)Cn1cc(-c2nc([C@@](C)(c3ccc(-c4cnc(N)nc4)cc3)C3CC3)no2)cn1 [BI 665915]
inactive: residual activity [1] 100% | residual activity [2] 87% | residual activity [3] 99% | residual activity [4] 100% | residual activity [5] 83% | residual activity [6] 75% | inhibition [7] 25.5% | residual activity [8] 99% | residual activity [9] 95% | residual activity [10] 90% | residual activity [11] 100% | residual activity [12] 96% | residual activity [13] 96% | residual activity [14] 70% | residual activity [15] 100% | residual activity [16] 100% | residual activity [17] 76% | residual activity [18] 100%
